Patent US20230310634A1, “ANTI-HUMAN VISTA ANTIBODIES AND USE THEREOF” (IMMUNEXT, INC., priority 2020, published 2023)
“Also recorded” adds a separate entry of the source. Counter-ions that a name gives are not always drawn.

Tested on: LPS stimulated human PBMCs
Test: In vitro potency of steroid payloads in LPS stimulated human PBMCs (IL-1β, IL-6 ELISA)
Format: cell-based
Conditions: for impact of halogenation of the steroid ring on potency: compared with INX-SM-3
[1] = Experiment 2, 1000-1 nM, 1 ng/mL LPS, 24 hr, n=1 donor
[2] = Experiment 6, 1000-0.16 nM, 1 ng/mL LPS, 24 hr, n=1
[3] = Experiment 3, 1000-0.2 nM, 1 ng/mL LPS, 24 hr, n=2 donors
[4] = Experiment 1, 1000-1 nM, 1 ng/mL LPS, 24 hr, n=1 donor

Row | SMILES | steroid potency as free payloads in LPS-activated human PBMCS (conclusions) | IL-1β and IL-6 production [4] | other results
1 | C[C@]12C=CC(=O)C=C1CC[C@@H]1[C@@H]2[C@@H](O)C[C@@]2(C)[C@H]1C[C@H]1O[C@H](c3cnc(Cc4cccc(N)c4)s3)O[C@]12C(=O)CO [INX-SM-56, (6aR,6bS,7S, 8aS,8bS,10S,11aR,12aS,12bS)-10-(2-(3-aminobenzyl)thiazol-5-yl)-7-hydroxy-8b-(2-hydroxyacetyl)-6a,8a-dimethyl-1,2,6a,6b,7,8,8a,8b, 11a,12,12a,12b-dodecahydro-4H-naphtho[2′,1′:4,5]indeno[1,2-d][1,3]dioxol-4-one] | did not show potency | – | IL-1β production [1]: did not show inhibition
2 | C[C@]12C=CC(=O)C=C1CC[C@@H]1[C@@H]2[C@@H](O)C[C@@]2(C)[C@H]1C[C@H]1O[C@@H](c3ccc(Cc4csc(N)n4)cc3)O[C@]12C(=O)CO [INX-SM-2, (6aR,6bS,7S,8aS,8bS,10R,11aR,12aS,12bS)-10-(4-((2-aminothiazol-4-yl)methyl)phenyl)-7-hydroxy-8b-(2-hydroxyacetyl)-6a,8a-dimethyl-1,2,6a,6b,7,8,8a,8b,11a,12,12a,12b-dodecahydro-4H-naphtho[2′,1′:4,5]indeno[1,2-d][1,3]dioxol-4-one AcOH salt] | varying degrees of dose dependent steroid potency | – | IL-1β production [2]: dose-dependent inhibition
3 | C[C@]12C=CC(=O)C=C1CC[C@@H]1[C@@H]2[C@@H](O)C[C@@]2(C)[C@H]1C[C@H]1OC(c3ccc(CC4(N)CC(F)(F)C4)cc3)O[C@]12C(=O)CO (stereo partly drawn) [INX-SM-35, (6aR,6bS,7S,8aS,8bS,10R,11aR,12aS,12bS)-10-(4-((1-amino-3,3-difluorocyclobutyl)methyl)phenyl)-7-hydroxy-8b-(2-hydroxyacetyl)-6a,8a-dimethyl 1,2,6a,6b,7,8,8a,8b,11a,12,12a,12b-dodecahydro-4H-naphtho[2′,1′:4,5]indeno[1,2-d][1,3]dioxol-4-one] | varying degrees of dose dependent steroid potency | – | IL-1β production [3]: dose dependent inhibition
4 | C[C@]12C=CC(=O)C=C1[C@@H](F)C[C@H]1[C@@H]3C[C@H]4O[C@@H](c5ccc(CC67CC(N)(C6)C7)cc5)O[C@@]4(C(=O)CO)[C@@]3(C)C[C@H](O)[C@@]12F [INX-SM-24, (2S,6aS,6bR,7S,8aS,8bS,10R,11aR,12aS,12bS)-10-(4-((3-aminobicyclo[1.1.1]pentan-1-yl)methyl)phenyl)-2,6b-difluoro-7-hydroxy-8b-(2-hydroxyacetyl)-6a,8a-dimethyl-1,2,6a,6b,7,8,8a,8b,11a,12,12a,12b-dodecahydro-4H-naphtho[2′,1′:4,5]indeno[1,2-d][1,3]dioxol-4-one] | varying degrees of dose dependent steroid potency | – | impact of halogenation of the steroid ring on potency (Experiment 6, 1000-0.16 nM): increased potency over the non-fluorinated INX-SM-3
5 | C[C@]12C=CC(=O)C=C1CC[C@H]1[C@@H]3C[C@H]4O[C@@H](c5ccc(CC67CC(N)(C6)C7)cc5)O[C@@]4(C(=O)CO)[C@@]3(C)C[C@H](O)[C@@]12F [INX-SM-13, (6aS,6bR,7S,8aS,8bS,10R,11aR,12aS,12bS)-10-(4-((3-aminobicyclo[1.1.1]pentan-1-yl)methyl)phenyl)-6b-fluoro-7-hydroxy-8b-(2-hydroxyacetyl)-6a,8a-dimethyl-1,2,6a,6b,7,8,8a,8b,11a,12,12a,12b-dodecahydro-4H-naphtho[2′,1′:4,5]indeno[1,2-d][1,3]dioxol-4-one] | varying degrees of dose dependent steroid potency | – | impact of halogenation of the steroid ring on potency (Experiment 6, 1000-0.16 nM): did not lead to increased potency
6 | C[C@]12C=CC(=O)C=C1CC[C@@H]1[C@@H]2[C@@H](O)C[C@@]2(C)[C@H]1C[C@H]1O[C@@H](c3ccc(Cc4cnc(N)s4)cc3)O[C@]12C(=O)CO [INX-SM-1, (6aR,6bS,7S,8aS,8bS,10R,11aR,12aS,12bS)-10-(4-((2-aminothiazol-5-yl)methyl)phenyl)-7-hydroxy-8b-(2-hydroxyacetyl)-6a,8a-dimethyl-1,2,6a,6b,7,8,8a,8b,11a,12,12a,12b-dodecahydro-4H-naphtho[2′,1′:4,5]indeno[1,2-d][1,3]dioxol-4-one AcOH salt] | varying degrees of dose dependent steroid potency | inhibit both IL-1β and IL-6 production | IL-1β production [1]: show inhibition in IL-1β production
7 | C[C@]12C=CC(=O)C=C1CC[C@@H]1[C@@H]2[C@@H](O)C[C@@]2(C)[C@H]1C[C@H]1O[C@H](C34CC(Cc5cccc(N)c5)(C3)C4)O[C@]12C(=O)CO [INX-SM-54, (6aR,6bS,7S,8aS,8bS,10S,11aR,12aS,12bS)-10-(3-(3-aminobenzyl)bicyclo[1.1.1]pentan-1-yl)-7-hydroxy-8b-(2-hydroxyacetyl)-6a,8a-dimethyl-1,2,6a,6b,7,8,8a,8b,11a,12,12a,12b-dodecahydro-4H-naphtho[2′,1′:4,5]indeno[1,2-d][1,3]dioxol-4-one] | did not show potency | did not show inhibition | –
8 | C[C@]12C=CC(=O)C=C1CC[C@@H]1[C@@H]2[C@@H](O)C[C@@]2(C)[C@H]1C[C@H]1O[C@@H](C34CC(Cc5cccc(N)c5)(C3)C4)O[C@]12C(=O)CO [INX-SM-4, (6aR,6bS,7S,8aS,8bS,10R,11aR,12aS,12bS)-10-(3-(3-aminobenzyl)bicyclo[1.1.1]pentan-1-yl)-7-hydroxy-8b-(2-hydroxyacetyl)-6a,8a-dimethyl-1,2,6a,6b,7,8,8a,8b,11a,12,12a,12b-dodecahydro-4H-naphtho[2′,1′:4,5]indeno[1,2-d][1,3]dioxol-4-one] | varying degrees of dose dependent steroid potency | inhibit both IL-1β and IL-6 production | IL-1β production [1]: show inhibition in IL-1β production
9 | C[C@]12C=CC(=O)C=C1CC[C@@H]1[C@@H]2[C@@H](O)C[C@@]2(C)[C@H]1C[C@H]1O[C@@H](c3ccc(CC45CCC(N)(CC4)CC5)cc3)O[C@]12C(=O)CO [INX-SM-10, (6aR,6bS,7S, 8aS,8bS,11aR,12aS,12bS)-10-(4-((4-aminobicyclo [2.2.2]octan-1-yl)methyl)phenyl)-7-hydroxy-8b-(2-hydroxyacetyl)-6a,8a-dimethyl-1,2,6a,6b,7,8,8a,8b,11a,12,12a,12b-dodecahydro-4H-naphtho[2′,1′:4,5]indeno[1,2-d][1,3]dioxol-4-one] | varying degrees of dose dependent steroid potency | – | IL-1β and IL-6 production (Experiment 5, 1000-0.5 nM, 1 ng/mL LPS, 24 hr, n=1 donor): dose dependent inhibition; also recorded: robust inhibition
10 | C[C@]12C=CC(=O)C=C1CC[C@@H]1[C@@H]2[C@@H](O)C[C@@]2(C)[C@H]1C[C@H]1O[C@H](c3ccc(CC45CC(N)(C4)C5)cc3)O[C@]12C(=O)CO [INX-SM-53, (6aR,6bS,7S,8aS,8bS,10S,11aR,12aS,12bS)-10-(4-((3-aminobicyclo[1.1.1]pentan-1-yl)methyl)phenyl)-7-hydroxy-8b-(2-hydroxyacetyl)-6a,8a-dimethyl-1,2,6a,6b,7,8,8a,8b, 11a,12,12a,12b-dodecahydro-4H-naphtho[2′,1′:4,5]indeno[1,2-d][1,3]dioxol-4-one] | did not show potency | did not show inhibition | –
11 | C[C@]12C=CC(=O)C=C1CC[C@@H]1[C@@H]2[C@@H](O)C[C@@]2(C)[C@H]1C[C@H]1O[C@@H](c3ccc(CC4COC5(CNC5)C4)cc3)O[C@]12C(=O)CO (stereo partly drawn) [INX-SM-31, (6aR,6bS,7S,8aS,8bS,11aR,12aS,12bS)-10-(4-((5-oxa-2-azaspiro[3.4]octan-7-yl)methyl)phenyl)-7-hydroxy-8b-(2-hydroxyacetyl)-6a,8a-dimethyl-1,2,6a,6b,7,8,8a,8b,11a,12,12a,12b-dodecahydro-4H-naphtho[2′,1′:4,5]indeno[1,2-d][1,3]dioxol-4-one] | varying degrees of dose dependent steroid potency; also recorded: lowest potency among the R stereoisomers | – | potency relative to the other compounds of the experiment (1 ng/mL LPS, 24 hr): least potent compound among these compounds tested; IL-1β production [3]: dose dependent inhibition
12 | C[C@@]12CCC3=CC(=O)C=C[C@]3(C)[C@H]1[C@@H](O)C[C@@]1(C)[C@H]2C[C@H]2O[C@@H](c3ccc(CC4CC5(CC(N)C5)C4)cc3)O[C@]21C(=O)CO (stereo partly drawn) [INX-SM-32, (6aR,6bS,7S,8aS,8bS,11aR,12aS,12bS)-10-(4-((6-aminospiro[3.3]heptan-2-yl)methyl)phenyl)-7-hydroxy-8b-(2-hydroxyacetyl)-6a,8a-dimethyl-1,2,6a,6b,7,8,8a,8b,11a,12,12a,12b-dodecahydro-4H-naphtho[2′,1′:4,5]indeno[1,2-d][1,3]dioxol-4-one] | varying degrees of dose dependent steroid potency | – | IL-1β and IL-6 production (Experiment 4, 500-1 nM, 1 ng/mL LPS, 24 hr, n=2): dose dependent inhibition in IL-1β and IL-6 production
13 | C[C@]12C=CC(=O)C=C1CC[C@@H]1[C@@H]2[C@@H](O)C[C@@]2(C)[C@H]1C[C@H]1O[C@@H](c3ccc(Cc4ncc(N)s4)cc3)O[C@]12C(=O)CO [INX-SM-7, (6aR,6bS,7S,8aS,8bS,10R,11aR,12aS,12bS)-10-(4-((5-aminothiazol-2-yl)methyl)phenyl)-7-hydroxy-8b-(2-hydroxyacetyl)-6a,8a-dimethyl-1,2,6a,6b,7,8,8a,8b,11a,12,12a,12b-dodecahydro-4H-naphtho[2′,1′:4,5]indeno[1,2-d][1,3]dioxol-4-one] | varying degrees of dose dependent steroid potency | – | IL-1β production [2]: dose-dependent inhibition
